Results reported in patent US20230416202A1, “Small Molecule Compounds and Compositions” (Telo Therapeutics, Inc., priority 2020, published 2023).

How the values were obtained:
Mutant TERT = test: HepG2 hTERT mRNA assay (qPCR); assay type: cell-based, human; details: Homo sapiens; HepG2 cells (mutated TERT), 48 hours, TERT mRNA via qPCR
Procedure: (§1) HepG2 cells (hepatocyte carcinoma (HCC) cells; with mutated TERT) or HEK293T cells (with wild type (wt) TERT) were seeded at 4,000 cells/well in 96-well plates. The following day, test compounds were added to cells for at concentrations of 25 uM, 12.5 uM, 6.25 uM, 3.125 uM, 1.563 uM, 0.781 uM, 0.391 uM, 0.195 uM, 0.098 uM or vehicle control (0.1% DMSO). Each condition was tested in three replicate wells. 48 hours post drug addition, the cells were harvested for RNA using the 96-Magmax RNA Isolation kit (Cat. No. AM1830). RNA was converted to cDNA using the Superscript III First strand cDNA synthesis kit (Cat. No. 18080051). RNA and cDNA concentration and quality were determined using the NanoQuant nucleic acid quantification method. 500 ng cDNA from each sample was used to detect TERT mRNA via qPCR. GUSB was also measured as an internal control and fold change to vehicle control was determined using the delta CT method.

wt TERT = test: HEK293T hTERT mRNA assay (qPCR); assay type: cell-based, human; details: HEK293 cells (wt TERT), 48 hours, class symbols
Procedure: as §1

[1] = tested on: GBM39 orthotopic xenograft; test: GBM39 orthotopic xenograft, tumor BLI; assay type: in vivo, mice; details: for tumor BLI change: 5 days
Procedure: (§2) In this study, Compound 101 was dosed twice daily (BID) via oral gavage to mice with GBM39 orthotopic xenograft (GBM39 cells). Tumor size was measured via Bioluminescence imaging (BLI). BLI readings were taken on treatment day 1 and day 5. Tumors were also harvested for downstream RNA analysis.
(§3) For each dose group (N=6), the following steps were performed. Briefly, athymic nu/nu mice were injected intracranially with patient-derived Glioblastoma cells. Animals began treatment once tumor BLI levels reach the range of 1×10^8-5×10^8. A dosing solution of Compound 101 (50 mg/kd, 100 mg/kd, or 200 mg/kg) or vehicle were administered by oral gavage (P.O., 50-100 uL volume) for 5 days. The dosing solutions were prepared similar to the process in Example 4. Dosing was twice daily on days 1-4. On day 5 the mice received a single dose, prior to harvest. Three hours after the last dose, mice were sacrificed and their brains were harvested and processed for analysis. […] TERT expression was also found to be reduced in all three dose groups (FIG. 3).
In a second study with Compound 101 in the GBM mice model, the 200 mg/kg dosing group was changed to a 100 mg/kg once daily dosing (QD). The baseline BLI readings were taken two days prior to 1st treatment.

TERT [2] = test: TERT expression in GBM39 orthotopic xenograft tumors; assay type: in vivo, mice; details: 50, 100 or 200 mg/kg BID, oral gavage, 5 days, FIG. 3
Procedure: as §2, §3

[3] = tested on: HepG2 subcutaneous tumor xenograft; test: HepG2 subcutaneous tumor xenograft, tumor volume; assay type: in vivo, mice; details: for Mean Tumor Volume: p.o, BID for 5 days
Procedure: The pharmacodynamic (PD) profiling of Compound 101 was determined in Athymic nude mice bearing subcutaneous tumor xenograft model.
(§4) HepG2 (Hepatocellular carcinoma cell line containing the C228T TERTp mutation) cells were implanted into the flanks of Athymic Nude-Foxn1nu mice. Once tumors reached 250-300 mm3 in size as measured by caliper, treatment of Compound 101 was initiated. Compound 101 was administered orally (P.O.) for 5 days BID at either 25 mg/kg, 50 mg/kg, or vehicle control (N=4 per group). Body weight and tumor size were measured on days 1, 3, and 5. Two hours after final dose administration, mice were sacrificed, and tumors extracted for RNA isolation and TERT mRNA expression analysis via RT-qPCR. Both TERT and GUSB were measured using SYBR green primers and relative TERT levels were analyzed using the delta delta CT method.

TERT [4] = test: TERT mRNA expression (RT-qPCR) in HepG2 xenograft tumors; assay type: in vivo, mice; details: for TERT Expression (RT-qPCR) Mean Fold: p.o, BID for 5 days
Procedure: as §4

[5] = Body weight in HepG2 xenograft mice; assay type: in vivo; details: p.o, BID for 5 days
Procedure: as §4

[6] = tested on: GBM39 cells orthotopic xenograft; test: GBM orthotopic xenograft survival study; assay type: in vivo, mice; details: oral gavage, 14 days of dosing
Procedure: GBM39 cells, a human PDX model of GBM, were selected for this study. GBM39 cells were stably transduced (MOI=3) with Firefly Luciferase Lentifect Purified Lentiviral Particles (Genecopoiea, #LPP-FLUC-Lv105) and were verified to be expressing luciferase stably and at similar levels 48 h pre-xenograft. A total of 1-4×10E4 luciferase-expressing PDX cells in 4 uL volume were injected into the right frontal cortex of athymic nu/nu mice (6-7-wk.-old, female). Animals were randomized into treatment groups and dosing initiated once tumors reach an average BLI of 1×10^8.
(§5) For this study, treatment began on day 7 post tumor cell implant and ceased on day 20 for a total of 14 days of dosing. Compound 101 was formulated with Solutol, DMSO and water and administered by oral gavage twice daily (BID). The dosage groups were vehicle control, 50 mg/kg BID, 25 mg/kg BID, and 10 mg/kg BID. […] Tumor size was monitored following injection of luciferin (150 mg/kg i.p.) 1-2 times weekly by bioluminescence imaging (Xenogen IVIS Spectrum Imaging System). Animals were weighed three times per week, and daily after initial weight loss is observed.

[7] = Body weight in GBM orthotopic xenograft survival study; assay type: in vivo, mice; details: highest dosage group (50 mg/kg BID), first 3 dosing days
Procedure: as §5

[8] = oral, 25 mg/kg and 50 mg/kg BID, 5 days (both dose levels)

O=C(O)C[C@@H]1C[C@@H](c2ccc(C(F)(F)F)cc2)CN(Cc2ccc(C(F)(F)F)cc2)C1 [Compound 101, 2-((3S,5S)-1-(4-(trifluoromethyl)benzyl)-5-(4-(trifluoromethyl)phenyl)piperidin-3-yl)acetic acid]
IC50 (Mutant TERT): < 500 nM
wt TERT IC50 uM HEK293 (wt TERT): “++”-IA
tumor BLI change ([1]; 50, 100 or 200 mg/kg BID, oral gavage, FIG. 2): significant tumor reduction
tumor size ([1]; second study, 100 mg/kg once daily dosing (QD)): sufficient to reduce tumor size
tumor BLI change ([1]; second study: 50 mg/kg BID, 100 mg/kg BID or 100 mg/kg QD, FIG. 4): significant tumor reduction
TERT expression in tumor (TERT [2]): reduced
Mean Tumor Volume ([3]; 25 mg/kg, Day 1): 252.22 mm3
Mean Tumor Volume ([3]; 25 mg/kg, Day 3): 230.02 mm3
Mean Tumor Volume ([3]; 25 mg/kg, Day 5): 197.97 mm3
Mean Tumor Volume ([3]; 50 mg/kg, Day 1): 251.37 mm3
Mean Tumor Volume ([3]; 50 mg/kg, Day 3): 212.58 mm3
Mean Tumor Volume ([3]; 50 mg/kg, Day 5): 168.34 mm3
tumor volume change [3, 8]: tumor regression
TERT Expression (RT-qPCR) Mean Fold (TERT [4]; 25 mg/kg): 0.21 Fold
TERT Expression (RT-qPCR) Mean Fold (TERT [4]; 50 mg/kg): 0.19 Fold
TERT mRNA in tumor (TERT [4]; [8]): TERT mRNA reduction
% Mean body weight change ([5]; 25 mg/kg, DAY 1): 0%
% Mean body weight change ([5]; 25 mg/kg, DAY 3): −4.36%
% Mean body weight change ([5]; 25 mg/kg, DAY 5): −3.65%
% Mean body weight change ([5]; 50 mg/kg, DAY 1): 0%
% Mean body weight change ([5]; 50 mg/kg, DAY 3): −11.09%
% Mean body weight change ([5]; 50 mg/kg, DAY 5): −10.68%
Median Survival ([6]; 20 mg/kg/day, bid (n = 10)): 50
Median Survival ([6]; 50 mg/kg/day, bid (n = 10)): 62.5
Median Survival ([6]; 100 mg/kg/day, bid × 3 days, then 50 mg/kg/day, qd (n = 9)): Undefined
body weight [7]: mice losing weight
